Measurements reported in ChEMBL document CHEMBL5614432, “NRF2 inhibitors: Recent progress, future design and therapeutic potential” (Eur J Med Chem, 2024).
Values belong to the compound of their own block, whether it stands above or below them.

Assays:
[1] = Cytotoxicity against human Leukemic stem cells incubated for 72 hrs by MTT assay; type: functional, cell-based; settings: Leukemic stem cell
[2] = molecular target: T1, Nuclear factor erythroid 2-related factor 2 (Homo sapiens, UniProt Q16236); experiment: Inhibition of NRF2 in human KYSE-70 cells; type: cell-based
T1 sequence (Q16236 whole entry): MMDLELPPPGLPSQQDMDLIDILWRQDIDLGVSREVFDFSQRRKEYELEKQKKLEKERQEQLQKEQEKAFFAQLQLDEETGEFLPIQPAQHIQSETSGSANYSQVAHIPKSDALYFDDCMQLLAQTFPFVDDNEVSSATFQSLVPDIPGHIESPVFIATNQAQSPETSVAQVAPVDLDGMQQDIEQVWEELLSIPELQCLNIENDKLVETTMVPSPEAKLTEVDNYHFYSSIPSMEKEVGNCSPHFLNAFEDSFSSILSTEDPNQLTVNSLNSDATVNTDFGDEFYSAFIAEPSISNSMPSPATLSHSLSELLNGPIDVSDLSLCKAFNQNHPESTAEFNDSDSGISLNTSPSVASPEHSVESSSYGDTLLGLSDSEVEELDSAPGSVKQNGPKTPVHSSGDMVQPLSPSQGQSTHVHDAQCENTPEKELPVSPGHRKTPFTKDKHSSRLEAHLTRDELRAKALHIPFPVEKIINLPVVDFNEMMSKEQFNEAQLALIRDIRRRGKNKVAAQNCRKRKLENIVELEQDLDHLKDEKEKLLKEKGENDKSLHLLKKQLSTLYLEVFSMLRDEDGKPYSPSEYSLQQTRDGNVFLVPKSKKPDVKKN

[3] = molecular target: T1, Nuclear factor erythroid 2-related factor 2; experiment: Inhibition of NRF2 in human A549 cells; type: cell-based
NRF2-MAFG = NRF2-MAFG (Homo sapiens, UniProt O15525+Q16236); experiment: Inhibition of NRF2/MAFG (unknown origin) heterodimerization using fluorescein-labeled ARE DNA duplex as substrate preincubated for 1 hr followed by substrate addition measured after 1 hr by FP assay; type: protein-complex assay
[4] = Cytotoxicity against human MCF7-DOX cells incubated for 24 hrs by MTT assay; type: functional, cell-based
cells = settings: Homo sapiens, Bel-7402, 48 h
Description: Cytotoxicity against human BEL-7402/ADM cells incubated for 48 hrs by MTT assay

A2780 = experiment: Inhibition of cell growth of human A2780 cells incubated for 24 to 96 hrs with re-current replacement of media containing compound for every 48 hrs by CCK8 assay; type: functional, cell-based
Caov-4 = experiment: Inhibition of cell growth of human Caov-4 cells incubated for 24 to 96 hrs with re-current replacement of media containing compound for every 48 hrs by CCK8 assay; type: functional, cell-based
SK-OV-3 = experiment: Inhibition of cell growth of human SK-OV-3 cells incubated for 24 to 96 hrs with re-current replacement of media containing compound for every 48 hrs by CCK8 assay; type: functional, cell-based
THP-1 = experiment: Cytotoxicity against human THP-1 cells incubated for 48 hrs by CCK8 assay; type: functional, cell-based; settings: THP-1, 48 h
T98G = experiment: Inhibition of cell viability in human T98G cells incubated for 24 hrs by MTT assay; type: functional, cell-based
U-87 MG = experiment: Inhibition of cell viability in human U-87 MG cells incubated for 24 hrs by MTT assay; type: functional, cell-based, U-87MG ATCC

Chain of NRF2-MAFG (O15525 whole entry, one chain of several): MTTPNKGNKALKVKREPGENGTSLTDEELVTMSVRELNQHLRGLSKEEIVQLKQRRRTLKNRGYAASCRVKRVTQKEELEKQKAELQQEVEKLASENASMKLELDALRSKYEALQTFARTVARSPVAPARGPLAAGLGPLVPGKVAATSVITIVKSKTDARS

SMILES: CC(C)[C@]12O[C@H]1[C@@H]1O[C@]13[C@]1(O[C@H]1C[C@H]1C4=C(CC[C@@]13C)C(=O)OC4)[C@@H]2O [TRIPTOLIDE]
- IC50 [1]: 0.0205 µM

SMILES: O=C(CC1NCCCC1O)Cn1cnc2cc(Br)c(Cl)cc2c1=O (stereo not drawn) [HALOFUGINONE]
- IC50 [2]: 0.0223 µM
- IC50 [3]: 0.0372 µM

- IC50 (NRF2-MAFG): 1.9 µM
SMILES: Cc1ccccc1C(=O)N1CCc2cc(-c3nc(NC(=O)Cc4ccc5c(c4)OCO5)sc3C)ccc21

SMILES: COc1c(O)cc(O)c2c(=O)cc(-c3ccccc3)oc12 [WOGONIN]
- IC50 [4]: ~150 µM

- IC50 (cells): ~50 µM
SMILES: O=c1cc(-c2ccc(O)cc2)oc2cc(O)cc(O)c12 [APIGENIN]

- IC50 (cells): ~30 µM
SMILES: O=c1cc(-c2ccccc2)oc2cc(O)cc(O)c12 [CHRYSIN]

- IC50 (A2780): ~20 µM
- IC50 (SK-OV-3): ~20 µM
SMILES: N#CC1(c2ccc(NC(=O)c3cccnc3NCc3ccncc3)cc2)CCCC1 [RIVOCERANIB]
- IC50 (Caov-4): ~20 µM

SMILES: CC(C)(C)c1ccc(Cn2nc(-c3ccc(Cl)cc3)cc2C(=O)NO)cc1
- IC50 (THP-1): 5.33 µM

SMILES: CC(C)c1cccc(=O)c(O)c1 [HINOKITIOL]
- IC50 (T98G): 152 µM
- IC50 (U-87 MG): 316 µM
